# Read-outs that look alike come from different tables or passages of the source.
# Tests used:
# [1] = test system: U87-MG human glioblastoma cell line; experiment: cells
# Experimental: (§1) a. […] Briefly, cells were harvested and seeded in 96 well microtiter plates at a density of 5,000 cells in 150 μL of culture medium and incubated for 24 hours in drug-free medium before treatment with vehicle alone or test compounds for 72 h.
# (§2) The cytotoxic effect was measured by the MTT reduction assay, in which 3-(4,5-Dimethylthiazol-2-yl)-2,5-diphenyltetrazolium bromide, a tetrazole, which is reduced to purple formazan in the mitochondria of living cells, was used. MTT (50 μL of 1 mg/mL stock solution) was added to the wells and incubated for 8 hours at 37° C. until formazan crystals were formed. After gently removing the culture medium, DMSO was added to dissolve the insoluble purple formazan product into a colored solution. […] Results were expressed as percentage of control cell growth.
# (§3) b. In a second set of assays, A549 human tumor cells were incubated with PM01183 in combination with each of the agents mentioned above.
# (§4) As a visual aid, response values were plotted on a scatter plot with dose ratios given on the x-axis and % response values on the y-axis. […] In cases where response values at the two endpoints were approximately equivalent, points lying above or below this predicted line of additivity could be interpreted as representing antagonistic or synergistic drug interaction, respectively.
# (§5) Additional serial dilutions were prepared in serum-free culture medium to achieve a final 4× concentration. Aliquots of 50 μL of each diluted compound were added per well.
# U87-MG was the human glioblastoma cell line selected for this assay.
# [2] = test system: HT-29 human colon adenocarcinoma cell line; experiment: cells
# Experimental: as §1, §2, §3, §4, §5
# HT-29 was the human colon adenocarcinoma cell line selected for this assay.
# [3] = test system: HGC-27 tumors; experiment: Human gastric tumor xenografts (HGC-27) in athymic nude mice, tumor volume % T/C; format: in vivo
# Experimental: (§6) Female athymic nude mice (Harlan Laboratories Models, S.L. (Barcelona, Spain) were utilized for all experiments. Animals were housed in individually ventilated cages, up to ten per cage in a 12-hour light-dark cycle at 21-23° C. and 40-60% humidity. The mice were allowed free access to irradiated standard rodent diet and sterilized water. Animals were acclimated for at least 5 days prior to tumor implantation with a tumor cell suspension.
# HGC-27 cells were grown at 37° C. with 5% CO2 in Iscove's modified Dulbeco's medium (IDMD).
# (§7) PM01183 was provided in the form of vials of lyophilized PM01183 cake which was reconstituted with water for infusion to a concentration of 0.2 mg/mL. The PM01183 stock solution was further diluted in 5% glucose solution for injection to the dosing formulation concentrations. Cisplatin and 5-fluorouracil were provided as solutions prepared by diluting the product with 0.9% saline solution for injection to the target final concentration.
# (§8) Dose level groups were administered either as single agents or in combination.
# (§9) Comparison of the median tumor volume in the treatment groups (T) to the median tumor volume in the control group (T/C×100%) was used for evaluation of the antitumor efficacy.
# [4] = test system: PANC-1 human pancreatic carcinoma cell line; experiment: cells
# Experimental: as §1, §2, §3, §4, §5
# PANC-1 was the human pancreatic carcinoma cell line selected for this assay.
# [5] = test system: RXF-393 human kidney carcinoma cell line; experiment: cells
# Experimental: as §1, §2, §3, §4, §5
# [6] = test system: MDA-MB-231 human breast adenocarcinoma cell line; experiment: cells
# Experimental: as §1, §2, §3, §4, §5
# [7] = test system: PC-3 human prostate cancer cell line; experiment: cells
# Experimental: as §1, §2, §3, §4, §5
# PC-3 was the human prostate adenocarcinome cell line selected for this assay.
# [8] = test system: HGC-27 human gastric carcinoma cell line; experiment: cells
# Experimental: as §1, §2, §3, §4, §5
# HGC-27 was the human gastric carcinoma cell line selected for this assay.
# [9] = test system: HepG2 human hepatocellular liver carcinoma cell line; experiment: MTT cytotoxicity assay in HepG2 cells: IC50 of single agents and combinations with PM01183; format: cell-based
# Experimental: as §1, §2, §3, §4, §5
# HepG2 was the human hepatocellular liver carcinoma cell line selected for this assay.
# [10] = test system: SK-MEL-2 human melanoma cell line; experiment: cells
# Experimental: as §1, §2, §3, §4, §5
# SK-MEL-2 was the human melanoma cell line selected for this assay.
# [11] = test system: IGROV-1 human ovarian adenocarcinoma cell line; experiment: cells
# Experimental: as §1, §2, §3, §4, §5
# IGROV-1 was the human ovarian adenocarcinoma cell line selected for this assay.
# [12] = test system: A673 human rhabdomyosarcoma cell line; experiment: cells; details: Homo sapiens, A673, 72 h
# Experimental: as §1, §2, §3, §4, §5
# A673 was the human rhabdomyosarcoma cell line selected for this assay.
# [13] = test system: RAMOS human lymphoma cell line; experiment: cells; details: Homo sapiens, Ramos, 72 h
# Experimental: Briefly, cells were seeded in 96 well microtiter plates at a density of 50000 cells per well in 150 μL of culture medium and incubated for 4-6 hours in drug-free medium before treatment with vehicle alone or test compounds for 72 hours.
# After incubation, the cytotoxic effect was evaluated using a MTT reduction assay. 50 μL of MTT solution (1 mg/mL) were added to the wells and incubated for 15-17 hours at 37° C. until formazan crystals were formed. After gently removing the culture medium, DMSO was added to dissolve the insoluble purple formazan product into a colored solution. […] Results were expressed as percentage of control cell growth. The EC50 values (half-maximal effective concentration) used for the combination studies were calculated using Prism v5.02 software (GraphPad). EC50 was expressed as molar concentration and represented the mean of at least three independent assays.
# Using these starting concentrations, constant serial dilutions were performed to generate the concentration-response curves for each set of drugs, alone and in combination.
# Based on this equation, the term “combination index” (CI) is used as a quantitative measure of the degree of drug interactions. […] CI values were calculated by solving the equation for different values of fa (i.e., for different degrees of cell groth inhibition).
# Data were analyzed using CalcuSyn software (Biosoft, Cambridge, UK). For statistical analysis and graphs Prism software (GraphPad, San Diego, USA) was used. All the results represent the mean of at least three independent experiments.
# as §5
# In the second set of assays, concentration-response curves for the agents tested, both alone and in two-drug combination, were performed.
# [14] = test system: A2780 tumors; experiment: Human ovarian tumor xenografts (A2780) in athymic nude mice, tumor volume % T/C; format: in vivo
# Experimental: as §6
# The formula to calculate volume for a prolate ellipsoid was used to estimate tumor volume (mm^3) from 2-dimensional tumor measurements: Tumor volume (mm^3)=[L×W^2]÷2, where L is the length and it is the longest diameter in mm, and W is the width and it is the shortest diameter in mm of a tumor. Assuming unit density, volume was converted to weight (i.e., 1 mm^3=1 mg). Tumor volume and animal body weights were measured 2-3 times per week starting form the first day of treatment (Day 0).
# as §7, with “[…] Vinorelbine was” for “Cisplatin and 5-fluorouracil were”, “a solution” for “solutions”, “solution.” for “solution for injection to the target final concentration.”
# as §8, §9
# Day 9 for PM01183 and vinorelbine study) using the median-effect principle (Chou T. C. Pharmacol. Rev.
# [15] = cisplatin 1.5 mg/kg iv days 0,7
# [16] = cisplatin 3.0 mg/kg iv days 0,7
# [17] = cisplatin 4.5 mg/kg iv days 0,7
# [18] = cisplatin 6.0 mg/kg iv days 0,7
# [19] = doxorubicin 2.0 mg/kg iv days 0,7
# [20] = doxorubicin 4.0 mg/kg iv days 0,7
# [21] = doxorubicin 6.0 mg/kg iv days 0,7
# [22] = doxorubicin 8.0 mg/kg iv days 0,7
compound,measurement,setting,value
"N.N.[Cl][Pt][Cl] [Cisplatin, cisplatin]",IC50,"[1]; U87-MG, 72 hours drug exposure, MTT",44 µM
same,IC50,"[2]; HT-29, 72 hours drug exposure, MTT",220 µM
same,% T/C on day 0,[3]; [15],99.3%
same,% T/C on day 3,[3]; [15],78.1%
same,% T/C on day 5,[3]; [15],78.8%
same,% T/C on day 7,[3]; [15],82.6%
same,% T/C on day 10,[3]; [15],83.5%
same,% T/C on day 12,[3]; [15],86.6%
same,% T/C on day 14,[3]; [15],89.9%
same,% T/C on day 0,[3]; [16],99.0%
same,% T/C on day 3,[3]; [16],78.6%
same,% T/C on day 5,[3]; [16],80.0%
same,% T/C on day 7,[3]; [16],78.7%
same,% T/C on day 10,[3]; [16],81.3%
same,% T/C on day 12,[3]; [16],82.8%
same,% T/C on day 14,[3]; [16],85.1%
same,% T/C on day 0,[3]; [17],98.5%
same,% T/C on day 3,[3]; [17],90.5%
same,% T/C on day 5,[3]; [17],94.5%
same,% T/C on day 7,[3]; [17],90.2%
same,% T/C on day 10,[3]; [17],75.7%
same,% T/C on day 12,[3]; [17],73.7%
same,% T/C on day 14,[3]; [17],81.1%
same,% T/C on day 0,[3]; [18],97.7%
same,% T/C on day 3,[3]; [18],76.1%
same,% T/C on day 5,[3]; [18],79.0%
same,% T/C on day 7,[3]; [18],75.1%
same,% T/C on day 10,[3]; [18],64.4%
same,% T/C on day 12,[3]; [18],61.3%
same,% T/C on day 14,[3]; [18],72.7%
same,IC50,"[4]; PANC-1, 72 hours drug exposure, MTT",147 µM
same,IC50,"[5]; RXF-393, 72 hours drug exposure, MTT",66.7 µM
same,IC50,"[6]; MDA-MB-231, 72 hours drug exposure, MTT",153 µM
same,IC50,"[7]; PC-3, 72 hours drug exposure, MTT",110 µM
same,IC50,"[8]; HGC-27, 72 hours drug exposure, MTT",80 µM
same,IC50,"[9]; HepG2, 72 hours drug exposure, MTT, read-out: IC50",50 µM
same,IC50,"[10]; SK-MEL-2, 72 hours drug exposure, MTT",160 µM
same,IC50,"[11]; IGROV-1, 72 hours drug exposure, MTT",70 µM
"Nc1ccn([C@@H]2O[C@H](CO)[C@@H](O)[C@@H]2O)c(=O)n1 [Cytarabine, cytarabine]",IC50,[12],0.197 µM
same,IC50,"[2]; Homo sapiens, HT-29, 72 h",7.8 µM
same,IC50,"[4]; Homo sapiens, PANC-1, 72 h",90 µM
same,EC50,[13],0.0364 µM
same,IC50,"[5]; Homo sapiens, RXF 393, 72 h",50 µM
same,IC50,"[6]; Homo sapiens, MDA-MB-231, 72 h",9.57 µM
same,IC50,"[7]; Homo sapiens, PC-3, 72 h",40 µM
same,IC50,"[8]; Homo sapiens, HGC-27, 72 h",50 µM
same,IC50,"[9]; Homo sapiens, HepG2, 72 h",20.6 µM
same,IC50,"[10]; Homo sapiens, SK-MEL-2, 72 h",3.89 µM
same,IC50,"[11]; Homo sapiens, IGROV-1, 72 h",11.7 µM
"COc1cccc2c1C(=O)c1c(O)c3c(c(O)c1C2=O)C[C@@](O)(C(=O)CO)C[C@@H]3O[C@H]1C[C@H](N)[C@H](O)[C@H](C)O1 [Doxorubicin, doxorubicin]",% T/C on day 0,[14]; [19],99.8%
same,% T/C on day 3,[14]; [19],91.5%
same,% T/C on day 5,[14]; [19],93.1%
same,% T/C on day 7,[14]; [19],94.2%
same,% T/C on day 10,[14]; [19],86.2%
same,% T/C on day 0,[14]; [20],102.0%
same,% T/C on day 3,[14]; [20],82.9%
same,% T/C on day 5,[14]; [20],75.1%
same,% T/C on day 7,[14]; [20],75.0%
same,% T/C on day 0,[14]; [21],99.4%
same,% T/C on day 3,[14]; [21],71.0%
same,% T/C on day 5,[14]; [21],60.3%
same,% T/C on day 7,[14]; [21],56.8%
same,% T/C on day 10,[14]; [21],54.3%
same,% T/C on day 0,[14]; [22],99.5%
same,% T/C on day 3,[14]; [22],60.8%
same,% T/C on day 5,[14]; [22],49.8%
same,% T/C on day 7,[14]; [22],48.1%
same,% T/C on day 10,[14]; [22],39.4%
same,IC50,"[1]; Homo sapiens, U-87 MG, 72 h",0.3 µM
same,IC50,"[2]; Homo sapiens, HT-29, 72 h",0.9 µM
same,IC50,"[4]; Homo sapiens, PANC-1, 72 h",3.45 µM
same,IC50,"[5]; Homo sapiens, RXF 393, 72 h",0.8 µM
same,IC50,"[6]; Homo sapiens, MDA-MB-231, 72 h",0.6 µM
same,IC50,"[7]; Homo sapiens, PC-3, 72 h",1.48 µM
same,IC50,"[8]; Homo sapiens, HGC-27, 72 h",0.054 µM
same,IC50,"[9]; Homo sapiens, HepG2, 72 h",0.2 µM
same,IC50,"[10]; Homo sapiens, SK-MEL-2, 72 h",0.3 µM
same,IC50,"[11]; Homo sapiens, IGROV-1, 72 h",0.259 µM
